Measurements from article PMC11018795, “The regulatory relationship between NAMPT and PD-L1 in cancer and identification of a dual-targeting inhibitor” (EMBO Molecular Medicine, 2024).
pIC50: −log10 of the molar value. Several values for one entry are separate records, joined by “and”; a condition that tells them apart may be missing. Equal values may be shown once.

Experiments:
[1] = tested on: LLC OE N/P cells co-cultured with T cells; assay: T cell-mediated tumor cell killing assay, LLC OE N/P; assay type: cell-based; details: Mus musculus, 100 nM, read-out: inhibition rate (T cell-mediated killing)
Method: (§1) To acquire activated T cells, human peripheral blood mononuclear cells (PBMC; LTS1077, Yanjin Biological) were cultured in CTSTM AIIM VTM SFM (A3021002; Gibco) with ImmunoCult Human CD3/CD28/CD2 T-cell activator (25 µL/mL; […] Technologies, Cat#10970) for 48 h according to the manufacturer’s protocol. The experiments were performed using mouse anti-CD3 antibody (1 µg/mL; Thermo Scientific, 16-0032-82) and anti-CD28 antibody(5 µg/mL; Thermo Scientific, 16-0281-82). Cancer cells were allowed to adhere to the plates overnight and then incubated for 48 h with activated T cells in the presence or absence of DX ([…]). Different proportions of cancer cells and activated T cells were utilized according to the purpose of each experiment. The T-cell proliferation assay was 1:3; the T-cell killing assay was 1:10; T cells and cell debris were removed by PBS washing, and the living cancer cells were then quantified by a spectrometer at OD (570 nm) followed by crystal violet staining. page 12: Fig 3: […] expression patterns. […] Data was obtained from the TCGA database. (B) T cell-mediated tumor cell killing assay. T cells were co-cultured with LLC Vector, […] CQ-85, or BMS202. […] stained by crystal violet. The relative added value of activated T cells is shown below. Data are presented as mean ± SEM; *P < 0.05, **P < 0.01, ***P < 0.001, compared with control. n.s., not significant. […]

[2] = tested on: LLC Vector cells co-cultured with T cells; assay: T cell-mediated tumor cell killing assay, LLC Vector; assay type: cell-based; details: Mus musculus, 100 nM, read-out: inhibition rate (T cell-mediated killing)
Method: as §1

Hep-3B cells = assay: MTT assay 48 h, Hep-3B; assay type: cell-based, human
Method: (§2) Cells (5 × 10^3/well) were seeded into a 96-well plate and cultured at 37 °C in a 5% CO2 incubator. […] At the final time point, 10 μl MTT solution (5 mg/ml, Sigma, Burlington, MA, USA) was added to each well and incubated for an additional 4 h at 37 °C in a 5% CO2 incubator. Then,100 μl of DMSO was added to each well and mixed thoroughly. Optical density was measured at 492 nm using a microplate reader (Molecular Devices, San Jose, CA, USA).

MDA-MB-231 cells = assay: MTT assay 48 h, MDA-MB-231; assay type: cell-based, human
Method: as §2

[3] = tested on: A2780, HCT-116, LLC, CT-26 cells co-cultured with T cells; assay: T-cell-mediated tumor cell killing assay, A2780, HCT-116, LLC, CT-26; assay type: cell-based, human, mouse; details: 72 h co-culture
Method: To acquire activated T cells, human peripheral blood mononuclear cells (PBMC; LTS1077, Yanjin Biological) were cultured in CTSTM AIIM VTM SFM (A3021002; Gibco) with ImmunoCult Human CD3/CD28/CD2 T-cell activator (25 µL/mL; […] Technologies, Cat#10970) for 48 h according to the manufacturer’s protocol. The experiments were performed using mouse anti-CD3 antibody (1 µg/mL; Thermo Scientific, 16-0032-82) and anti-CD28 antibody(5 µg/mL; Thermo Scientific, 16-0281-82). […] Different proportions of cancer cells and activated T cells were utilized according to the purpose of each experiment. The T-cell proliferation assay was 1:3; the T-cell killing assay was 1:10; T cells and cell debris were removed by PBS washing, and the living cancer cells were then quantified by a spectrometer at OD (570 nm) followed by crystal violet staining.

A20 tumors = assay: A20 tumor-bearing Balb/c nude mice; assay type: in vivo, mouse; details: 20 mg/kg i.p., Fig 6E
Method: The 4–6 weeks-old Balb/c mice and Balb/c nude mice were maintained in a specific pathogen-free (SPF) facility. A20 cells (5 × 10^6 cells in 0.2 ml phosphate-buffered saline) were subcutaneously injected into the right armpit of Balb/c mice and Balb/c nude mice. Tumor volume was measured using calipers every 2 days and calculated using the following formula: (long diameter) × (short diameter)^2/2. […] Balb/c nude mice were treated with LZFPN-90 (20 mg/kg). After 12 days of administration, the animals were anesthetized, and tumors were excised. Some fresh tumor tissues were subjected to immune cell isolation. Tissues were either fixed in 4% formalin or stored at −80 °C until further analysis.

HCT-116 cells [4] = assay: Clonogenic assay, HCT-116; assay type: cell-based, human; details: 9 days
Method: Cells (3 × 10^2/well) were plated in a six-well plate and the culture medium was replaced every 2 days. After culturing for 7–10 d, the cells were fixed with 4% paraformaldehyde for 15 min, stained with 0.1% crystal violet for 30 min, and imaged and counted.

[5] = tested on: NAD+ content of LLC OE NAMPT/PD-L1 tumor tissue; assay: NAD+ in tumor tissue, LLC OE NAMPT/PD-L1 mouse model; assay type: in vivo; details: 20 mg/kg
NAMPT = NAMPT (Homo sapiens, UniProt P43490); assay: In vitro NAMPT activity assay (Abcam kit); assay type: biochemical; parameters: purchased Abcam ab221819
[6] = In vitro metabolic stability in human liver microsome; assay type: in vitro ADME
Method: 2) Pharmacokinetics: Human liver microsomal stability assay is widely adopted in the preliminary evaluation for pharmacokinetic properties, reflecting the potential metabolic stability of indicated compounds in the human body. Thus, considering the […]
activity of LZFPN-90, it was further evaluated for potential metabolism in human liver microsome. The intrinsic clearance for LZFPN-90 in human liver microsome is 0.035 mL/min/mg. According to the classical criteria (Low clearance: CLint < 0.01 mL/min/mg; medium clearance: 0.01 ≤ CLint ≤ 0.1 mL/min/mg; high clearance: CLint > […]
indicating its potential for further development. […]
Table 1. In Vitro Metabolic Stability of LZFPN-90 in Human Liver Microsome T1/2 CLint, in vitro Remaining
(min)a (mL/min/mg)b (T = 60 min) […]
b CLint: intrinsic clearance, CLint(mic)=0.693/T1/2/mg microsomal protein/mL
(1 picture or pasted object on this page, not shown here)

HCT-116 cells [7] = assay: MTT assay 48 h, HCT-116; assay type: cell-based, human
Method: as §2

NAMPT, sequence (P43490 whole entry, species assumed): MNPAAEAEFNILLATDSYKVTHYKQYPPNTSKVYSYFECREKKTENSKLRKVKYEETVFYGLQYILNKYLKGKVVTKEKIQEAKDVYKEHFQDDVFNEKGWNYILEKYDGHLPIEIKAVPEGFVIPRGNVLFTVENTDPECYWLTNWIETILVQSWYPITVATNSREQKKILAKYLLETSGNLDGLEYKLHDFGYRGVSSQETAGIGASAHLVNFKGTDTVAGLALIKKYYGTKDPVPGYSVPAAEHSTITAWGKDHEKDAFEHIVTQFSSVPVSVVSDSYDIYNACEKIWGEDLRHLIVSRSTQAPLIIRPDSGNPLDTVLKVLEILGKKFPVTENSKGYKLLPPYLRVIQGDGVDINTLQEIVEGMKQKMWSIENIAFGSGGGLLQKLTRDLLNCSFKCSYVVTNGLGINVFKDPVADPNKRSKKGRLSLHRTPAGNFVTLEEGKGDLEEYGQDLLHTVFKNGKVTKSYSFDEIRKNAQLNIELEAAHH

CCN(CC)CCCOc1cccc(-c2cccc3c2CCN3C(=O)c2ncc(CNC(=NC#N)Nc3ccncc3)s2)c1 [LZFPN-90]
inhibition at 0.1 µM [1]: ~80% | inhibition at 0.1 µM [2]: ~40% | Relative inhibition (敏感性) (Hep-3B cells): 0.42 | Relative inhibition (敏感性) (MDA-MB-231 cells): 0.09 | T-cell killing of tumor cells, comparison at the same concentration [3]: more effective than BMS202 | TIR (relative tumor weight) (A20 tumors): 46.2% | Colony formation relative to Ctrl (HCT-116 cells [4]; LZ90-H (2 nM)): 0.17 | Colony formation relative to Ctrl (HCT-116 cells [4]; LZ90-L (0.5 nM), Ctrl = 1): 0.6 | Colony formation relative to Ctrl (HCT-116 cells [4]; LZ90-M (1 nM)): 0.26 | effect on NAD+ content in tumor tissues [5]: reduced NAD^+ content in tumor tissues | NAD+ in 20 mg tissue ([5]; tumor tissue): 221.603 and 139.494 and 234.768 | pIC50 (NAMPT): 7.55 | mode of NAMPT inhibition (NAMPT; concluded from NMN reversal of NAD+ reduction): NAMPT competitive inhibitor | stability in human liver microsome ([6]; criteria: low CLint < 0.01, medium 0.01-0.1, high > 0.1 mL/min/mg): moderate stability in human liver microsome | Remaining (T = 60 min) ([6]; human liver microsome): 36.8% | half-life ([6]; liver microsomes, human liver microsome): 39.6 min | microsomal CLint ([6]; liver microsomes, human liver microsome, read-out: CLint, in vitro (intrinsic clearance)): 35 µL/min/mg | Relative inhibition (敏感性) (HCT-116 cells [7]): 0.61
